The source made the active and inactive calls.
How the values were obtained:
Type in all cases: functional
CCRF-CEM = experiment: Cytotoxicity against human CCRF-CEM cells assessed as cell growth at 10 uM after 48 hrs by sulforhodamine B assay
RXF 393 = experiment: Cytotoxicity against human RXF393 cells assessed as cell growth at 10 uM after 48 hrs by sulforhodamine B assay
NCI-H460 = experiment: Cytotoxicity against human NCI-H460 cells assessed as cell growth at 10 uM after 48 hrs by sulforhodamine B assay
SK-MEL-28 = experiment: Cytotoxicity against human SK-MEL-28 cells assessed as cell growth at 10 uM after 48 hrs by sulforhodamine B assay
COLO 205 = experiment: Cytotoxicity against human COLO205 cells assessed as cell growth at 10 uM after 48 hrs by sulforhodamine B assay
HCT-15 = experiment: Cytotoxicity against human HCT15 cells assessed as cell growth at 10 uM after 48 hrs by sulforhodamine B assay
K562 = experiment: Cytotoxicity against human K562 cells assessed as cell growth at 10 uM after 48 hrs by sulforhodamine B assay; conditions: for growth at 10 µM: K562, 48 h, read-out: Activity
786-0 = experiment: Cytotoxicity against human 786-0 cells assessed as cell growth at 10 uM after 48 hrs by sulforhodamine B assay
UACC-257 = experiment: Cytotoxicity against human UACC257 cells assessed as cell growth at 10 uM after 48 hrs by sulforhodamine B assay
SK-MEL-5 = experiment: Cytotoxicity against human SK-MEL-5 cells assessed as cell growth at 10 uM after 48 hrs by sulforhodamine B assay
SR = experiment: Cytotoxicity against human SR cells assessed as cell growth at 10 uM after 48 hrs by sulforhodamine B assay
SNB-19 = experiment: Cytotoxicity against human SNB19 cells assessed as cell growth at 10 uM after 48 hrs by sulforhodamine B assay
RPMI-8226 = experiment: Cytotoxicity against human RPMI8226 cells assessed as cell growth at 10 uM after 48 hrs by sulforhodamine B assay; conditions: for growth at 10 µM: RPMI-8226, 48 h, read-out: Activity
DU-145 = experiment: Cytotoxicity against human DU145 cells assessed as cell growth at 10 uM after 48 hrs by sulforhodamine B assay
LOX IMVI = experiment: Cytotoxicity against human LOXIMVI cells assessed as cell growth at 10 uM after 48 hrs by sulforhodamine B assay
SF-295 = experiment: Cytotoxicity against human SF295 cells assessed as cell growth at 10 uM after 48 hrs by sulforhodamine B assay; conditions: for growth at 10 µM: SF-295, 48 h, read-out: Activity
U-251 = experiment: Cytotoxicity against human U251 cells assessed as cell growth at 10 uM after 48 hrs by sulforhodamine B assay
MOLT-4 = experiment: Cytotoxicity against human MOLT4 cells assessed as cell growth at 10 uM after 48 hrs by sulforhodamine B assay; conditions: for growth at 10 µM: MOLT-4, 48 h, read-out: Activity
SNB-75 = experiment: Cytotoxicity against human SNB75 cells assessed as cell growth at 10 uM after 48 hrs by sulforhodamine B assay
HCT-116 = experiment: Cytotoxicity against human HCT116 cells assessed as cell growth at 10 uM after 48 hrs by sulforhodamine B assay
TK-10 = experiment: Cytotoxicity against human TK10 cells assessed as cell growth at 10 uM after 48 hrs by sulforhodamine B assay
SF-268 = experiment: Cytotoxicity against human SF268 cells assessed as cell growth at 10 uM after 48 hrs by sulforhodamine B assay
SK-MEL-2 = experiment: Cytotoxicity against human SK-MEL-2 cells assessed as cell growth at 10 uM after 48 hrs by sulforhodamine B assay
OVCAR-3 = experiment: Cytotoxicity against human OVCAR-3 cells assessed as cell growth at 10 uM after 48 hrs by sulforhodamine B assay
PC-3 = experiment: Cytotoxicity against human PC3 cells assessed as cell growth at 10 uM after 48 hrs by sulforhodamine B assay
NCI-H522 = experiment: Cytotoxicity against human NCI-H522 cells assessed as cell growth at 10 uM after 48 hrs by sulforhodamine B assay
NCI-H322M = experiment: Cytotoxicity against human NCI-H322M cells assessed as cell growth at 10 uM after 48 hrs by sulforhodamine B assay
OVCAR-8 = experiment: Cytotoxicity against human OVCAR8 cells assessed as cell growth at 10 uM after 48 hrs by sulforhodamine B assay
NCI-H226 = experiment: Cytotoxicity against human NCI-H226 cells assessed as cell growth at 10 uM after 48 hrs by sulforhodamine B assay
HT-29 = experiment: Cytotoxicity against human HT-29 cells assessed as cell growth at 10 uM after 48 hrs by sulforhodamine B assay
UO-31 = experiment: Cytotoxicity against human UO31 cells assessed as cell growth at 10 uM after 48 hrs by sulforhodamine B assay
T47D = experiment: Cytotoxicity against human T47D cells assessed as cell growth at 10 uM after 48 hrs by sulforhodamine B assay
A549 = experiment: Cytotoxicity against human A549 cells assessed as cell growth at 10 uM after 48 hrs by sulforhodamine B assay
SN12C = experiment: Cytotoxicity against human SN12C cells assessed as cell growth at 10 uM after 48 hrs by sulforhodamine B assay
UACC-62 = experiment: Cytotoxicity against human UACC62 cells assessed as cell growth at 10 uM after 48 hrs by sulforhodamine B assay; conditions: for growth at 10 µM: UACC-62, 48 h, read-out: Activity
IGROV-1 = experiment: Cytotoxicity against human IGROV1 cells assessed as cell growth at 10 uM after 48 hrs by sulforhodamine B assay
OVCAR-4 = experiment: Cytotoxicity against human OVCAR4 cells assessed as cell growth at 10 uM after 48 hrs by sulforhodamine B assay
HCC 2998 = experiment: Cytotoxicity against human HCC2998 cells assessed as cell growth at 10 uM after 48 hrs by sulforhodamine B assay
SK-OV-3 = experiment: Cytotoxicity against human SKOV3 cells assessed as cell growth at 10 uM after 48 hrs by sulforhodamine B assay
MCF7 = experiment: Cytotoxicity against human MCF7 cells assessed as cell growth at 10 uM after 48 hrs by sulforhodamine B assay
SF-539 = experiment: Cytotoxicity against human SF539 cells assessed as cell growth at 10 uM after 48 hrs by sulforhodamine B assay
BT-549 = experiment: Cytotoxicity against human BT549 cells assessed as cell growth at 10 uM after 48 hrs by sulforhodamine B assay
MDA-MB-435 = experiment: Cytotoxicity against human MDA-MB-435 cells assessed as cell growth at 10 uM after 48 hrs by sulforhodamine B assay
KM12 = experiment: Cytotoxicity against human KM12 cells assessed as cell growth at 10 uM after 48 hrs by sulforhodamine B assay
HOP-62 = experiment: Cytotoxicity against human HOP62 cells assessed as cell growth at 10 uM after 48 hrs by sulforhodamine B assay
A498 = experiment: Cytotoxicity against human A498 cells assessed as cell growth at 10 uM after 48 hrs by sulforhodamine B assay
M14 = experiment: Cytotoxicity against human M14 cells assessed as cell growth at 10 uM after 48 hrs by sulforhodamine B assay
NCI-H23 = experiment: Cytotoxicity against human NCI-H23 cells assessed as cell growth at 10 uM after 48 hrs by sulforhodamine B assay
Malme-3M = experiment: Cytotoxicity against human MALME-3M cells assessed as cell growth at 10 uM after 48 hrs by sulforhodamine B assay
MDA-MB-231 = experiment: Cytotoxicity against human MDA-MB-231 cells assessed as cell growth at 10 uM after 48 hrs by sulforhodamine B assay
MDA-MB-468 = experiment: Cytotoxicity against human MDA-MB-468 cells assessed as cell growth at 10 uM after 48 hrs by sulforhodamine B assay
Hs-578T = experiment: Cytotoxicity against human Hs 578T cells assessed as cell growth at 10 uM after 48 hrs by sulforhodamine B assay
EKVX = experiment: Cytotoxicity against human EKVX cells assessed as cell growth at 10 uM after 48 hrs by sulforhodamine B assay
SW-620 = experiment: Cytotoxicity against human SW620 cells assessed as cell growth at 10 uM after 48 hrs by sulforhodamine B assay
HOP-92 = experiment: Cytotoxicity against human HOP92 cells assessed as cell growth at 10 uM after 48 hrs by sulforhodamine B assay
ACHN = experiment: Cytotoxicity against human ACHN cells assessed as cell growth at 10 uM after 48 hrs by sulforhodamine B assay
OVCAR-5 = experiment: Cytotoxicity against human OVCAR5 cells assessed as cell growth at 10 uM after 48 hrs by sulforhodamine B assay
HL-60(TB) = experiment: Cytotoxicity against human HL-60(TB) cells assessed as cell growth at 10 uM after 48 hrs by sulforhodamine B assay

CCCc1cc(=O)oc2c(C)c(OCc3nnc(S)o3)ccc12
inactive: Activity (CCRF-CEM) | Activity (RXF 393) | Activity (NCI-H460) | Activity (SK-MEL-28) | Activity (COLO 205) | Activity (HCT-15) | Activity (K562) | Activity (786-0) | Activity (UACC-257) | Activity (SK-MEL-5) | Activity (SR) | Activity (SNB-19) | Activity (RPMI-8226) | Activity (DU-145) | Activity (LOX IMVI) | Activity (SF-295) | Activity (U-251) | Activity (MOLT-4) | Activity (SNB-75) | Activity (HCT-116) | Activity (TK-10) | Activity (SF-268) | Activity (SK-MEL-2) | Activity (OVCAR-3) | Activity (PC-3) | Activity (NCI-H522) | Activity (NCI-H322M) | Activity (OVCAR-8) | Activity (NCI-H226) | Activity (HT-29) | Activity (UO-31) | Activity (T47D) | Activity (A549) | Activity (SN12C) | Activity (UACC-62) | Activity (IGROV-1) | Activity (OVCAR-4) | Activity (HCC 2998) | Activity (SK-OV-3) | Activity (MCF7) | Activity (SF-539) | Activity (BT-549) | Activity (MDA-MB-435) | Activity (KM12) | Activity (HOP-62) | Activity (A498) | Activity (M14) | Activity (NCI-H23) | Activity (Malme-3M) | Activity (MDA-MB-231) | Activity (MDA-MB-468) | Activity (Hs-578T) | Activity (EKVX) | Activity (SW-620) | Activity (HOP-92) | Activity (ACHN) | Activity (OVCAR-5) | Activity (HL-60(TB))

CSc1nnc(COc2ccc3c(-c4ccccc4)cc(=O)oc3c2C)o1
inactive: Activity (CCRF-CEM) | Activity (RXF 393) | Activity (NCI-H460) | Activity (SK-MEL-28) | Activity (COLO 205) | Activity (HCT-15) | Activity (K562) | Activity (786-0) | Activity (UACC-257) | Activity (SK-MEL-5) | Activity (SR) | Activity (SNB-19) | Activity (RPMI-8226) | Activity (DU-145) | Activity (LOX IMVI) | Activity (SF-295) | Activity (U-251) | Activity (MOLT-4) | Activity (SNB-75) | Activity (HCT-116) | Activity (TK-10) | Activity (SF-268) | Activity (SK-MEL-2) | Activity (OVCAR-3) | Activity (PC-3) | Activity (NCI-H522) | Activity (NCI-H322M) | Activity (OVCAR-8) | Activity (NCI-H226) | Activity (HT-29) | Activity (UO-31) | Activity (T47D) | Activity (A549) | Activity (SN12C) | Activity (UACC-62) | Activity (IGROV-1) | Activity (OVCAR-4) | Activity (HCC 2998) | Activity (SK-OV-3) | Activity (MCF7) | Activity (SF-539) | Activity (BT-549) | Activity (MDA-MB-435) | Activity (KM12) | Activity (HOP-62) | Activity (A498) | Activity (M14) | Activity (NCI-H23) | Activity (Malme-3M) | Activity (MDA-MB-231) | Activity (MDA-MB-468) | Activity (Hs-578T) | Activity (EKVX) | Activity (SW-620) | Activity (HOP-92) | Activity (ACHN) | Activity (OVCAR-5) | Activity (HL-60(TB))

CCCc1cc(=O)oc2cc(OCc3nnc(S)n3Cc3ccccc3)ccc12
57.6%: growth at 10 µM (SR; read-out: Activity)
48.7%: growth at 10 µM (OVCAR-4; OVCAR-4, 48 h, read-out: Activity)
53.4%: growth at 10 µM (SK-MEL-2; SK-MEL-2, 48 h, read-out: Activity)
57.7%: growth at 10 µM (EKVX; read-out: Activity)
46.9%: growth at 10 µM (K562)
50.7%: growth at 10 µM (T47D; read-out: Activity)
59.7%: growth at 10 µM (UACC-62) | growth at 10 µM (HL-60(TB); HL-60, 48 h, read-out: Activity)
53%: growth at 10 µM (SF-295)
37.3%: growth at 10 µM (RPMI-8226)
58.7%: growth at 10 µM (MOLT-4)

Cc1c(OCc2nnc(S)n2Cc2ccccc2)ccc2c(-c3ccccc3)cc(=O)oc12
56.6%: growth at 10 µM (PC-3; PC-3, 48 h, read-out: Activity) | growth at 10 µM (NCI-H522; NCI-H522, 48 h, read-out: Activity)
49%: growth at 10 µM (MOLT-4)
53.6%: growth at 10 µM (K562)
59.9%: growth at 10 µM (UACC-62)
57.1%: growth at 10 µM (HT-29; HT-29, 48 h, read-out: Activity)
31.5%: growth at 10 µM (RPMI-8226)
45.8%: growth at 10 µM (SF-295)

CCCc1cc(=O)oc2c(C)c(OCc3nnc(SC)o3)ccc12
21.9%: growth at 10 µM (SF-295)

Cc1c(OCc2nnc(-c3ccccc3)o2)ccc2c(-c3ccccc3)cc(=O)oc12
47.5%: growth at 10 µM (RPMI-8226)

From ChEMBL document CHEMBL1240439, “Synthesis and docking studies of novel benzopyran-2-ones with anticancer activity” (2010)
